These compounds were tested on RS4;11 cells (assay: RS4;11 cell viability assay (CellTiter Glo)). Settings: 50,000 cells per well, 10% human serum, 48 hours; read-out: RS4; 11 EC50 Values.
Format: cell-based, human
Description: The acute lymphoblastic leukemia (ALL) cell line RS4;11 was used as the primary human cell line to assess the cellular activity of Bcl-2 selective agents in vitro and their efficacy in vivo.
Cell cytotoxicity EC50 values were assessed using CellTiter Glo (Promega) according to the manufacturer's recommendations. The EC50 values were determined as a percentage of viable cells following treatment compared to the untreated control cells.
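Further: acute lymphoblastic leukemia line RS4,11, EC50 derived from percentage of viable cells after treatment relative to untreated controls, cell killing taken as a measure of Bcl-2 inhibition.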

Row | Structure (SMILES) | EC50
1 | CC1(C)CCC(CN2CCN(c3ccc(C(=O)NS(=O)(=O)c4ccc(NC[C@H]5CC[C@](C)(O)CC5)c([N+](=O)[O-])c4)c(Oc4cnc5[nH]ccc5c4)c3)CC2)=C(c2ccc(Cl)cc2)C1 [Example 338, 4-(4-{[2-(4-chlorophenyl)-4,4-dimethylcyclohex-1-en-1-yl]methyl}piperazin-1-yl)-N-[(4-{[(cis-4-hydroxy-4-methylcyclohexyl)methyl]amino}-3-nitrophenyl)sulfonyl]-2-(1H-pyrrolo[2,3-b]pyridin-5-yloxy)benzamide] | 3.4 nM

Same assay, conditions: Homo sapiens, RS4-11, 48 h, 50,000 cells per well, 10% human serum, 48 hours; read-out: RS4; 11 EC50 Values

Row | Structure (SMILES) | EC50
2 | O=C(NS(=O)(=O)c1ccc(NCC2CN(C3CC3)CCO2)c([N+](=O)[O-])c1)c1ccc(N2CCN(CC3=C(c4ccc(Cl)cc4)CC4(CC3)CC4)CC2)cc1Oc1cnc2[nH]ccc2c1 (stereo not shown) [Example 330, 4-(4-{[5-(4-chlorophenyl)spiro[2.5]oct-5-en-6-yl]methyl}piperazin-1-yl)-N-[(4-{[(4-cyclopropylmorpholin-2-yl)methyl]amino}-3-nitrophenyl)sulfonyl]-2-(1H-pyrrolo[2,3-b]pyridin-5-yloxy)benzamide] | 9.78 nM
3 | CC1(C)CCC(CN2CCN(c3ccc(C(=O)NS(=O)(=O)c4ccc(OCC5CN(C6CC6)CCO5)c(Cl)c4)c(Oc4cnc5[nH]ccc5c4)c3)CC2)=C(c2ccc(Cl)cc2)C1 (stereo not shown) [Example 331, N-({3-chloro-4-[(4-cyclopropylmorpholin-2-yl)methoxy]phenyl}sulfonyl)-4-(4-{[2-(4-chlorophenyl)-4,4-dimethylcyclohex-1-en-1-yl]methyl}piperazin-1-yl)-2-(1H-pyrrolo[2,3-b]pyridin-5-yloxy)benzamide] | 926 nM
4 | CC1(C)CCC(CN2CCN(c3ccc(C(=O)NS(=O)(=O)c4ccc(NCC5CN(C6CC6)CCO5)c(Cl)c4)c(Oc4cnc5[nH]ccc5c4)c3)CC2)=C(c2ccc(Cl)cc2)C1 (stereo not shown) [Example 332, N-[(3-chloro-4-{[(4-cyclopropylmorpholin-2-yl)methyl]amino}phenyl)sulfonyl]-4-(4-{[2-(4-chlorophenyl)-4,4-dimethylcyclohex-1-en-1-yl]methyl}piperazin-1-yl)-2-(1H-pyrrolo[2,3-b]pyridin-5-yloxy)benzamide] | 457 nM
5 | CCN(C)C(=O)N1CCOC(CNc2ccc(S(=O)(=O)NC(=O)c3ccc(N4CCN(CC5=C(c6ccc(Cl)cc6)CC(C)(C)CC5)CC4)cc3Oc3cnc4[nH]ccc4c3)cc2Cl)C1 (stereo not shown) [Example 333, 2-{[(2-chloro-4-{[4-(4-{[2-(4-chlorophenyl)-4,4-dimethylcyclohex-1-en-1-yl]methyl}piperazin-1-yl)-2-(1H-pyrrolo[2,3-b]pyridin-5-yloxy)benzoyl]sulfamoyl}phenyl)amino]methyl}-N-ethyl-N-methylmorpholine-4-carboxamide] | 463 nM
6 | CCN(C)C(=O)N1CCO[C@H](COc2ncc(S(=O)(=O)NC(=O)c3ccc(N4CCN(CC5=C(c6ccc(Cl)cc6)CC(C)(C)CC5)CC4)cc3Oc3cnc4[nH]ccc4c3)cc2Cl)C1 [Example 334, (2S)-2-{[(3-chloro-5-{[4-(4-{[2-(4-chlorophenyl)-4,4-dimethylcyclohex-1-en-1-yl]methyl}piperazin-1-yl)-2-(1H-pyrrolo[2,3-b]pyridin-5-yloxy)benzoyl]sulfamoyl}pyridin-2-yl)oxy]methyl}-N-ethyl-N-methylmorpholine-4-carboxamide] | > 1000 nM
7 | CC1(C)CCC(CN2CCN(c3ccc(C(=O)NS(=O)(=O)c4cnc(NCC5CN(C6CC6)CCO5)c(Cl)c4)c(Oc4cnc5[nH]ccc5c4)c3)CC2)=C(c2ccc(Cl)cc2)C1 (stereo not shown) [Example 335, N-[(5-chloro-6-{[(4-cyclopropylmorpholin-2-yl)methyl]amino}pyridin-3-yl)sulfonyl]-4-(4-{[2-(4-chlorophenyl)-4,4-dimethylcyclohex-1-en-1-yl]methyl}piperazin-1-yl)-2-(1H-pyrrolo[2,3-b]pyridin-5-yloxy)benzamide] | 270 nM
8 | CCN(C)C(=O)N1CCOC(CNc2ncc(S(=O)(=O)NC(=O)c3ccc(N4CCN(CC5=C(c6ccc(Cl)cc6)CC(C)(C)CC5)CC4)cc3Oc3cnc4[nH]ccc4c3)cc2Cl)C1 (stereo not shown) [Example 336, 2-{[(3-chloro-5-{[4-(4-{[2-(4-chlorophenyl)-4,4-dimethylcyclohex-1-en-1-yl]methyl}piperazin-1-yl)-2-(1H-pyrrolo[2,3-b]pyridin-5-yloxy)benzoyl]sulfamoyl}pyridin-2-yl)amino]methyl}-N-ethyl-N-methylmorpholine-4-carboxamide] | 351 nM
9 | CC1(C)CCC(CN2CCN(c3ccc(C(=O)NS(=O)(=O)c4cnc(OC[C@@H]5C[C@H]6C[C@@H]5C[C@@]6(C)O)c(Cl)c4)c(Oc4cnc5[nH]ccc5c4)c3)CC2)=C(c2ccc(Cl)cc2)C1 [Example 339, N-[(5-chloro-6-{[(1R,2R,4R,5R)-5-hydroxy-5-methylbicyclo[2.2.1]hept-2-yl]methoxy}pyridin-3-yl)sulfonyl]-4-(4-{[2-(4-chlorophenyl)-4,4-dimethylcyclohex-1-en-1-yl]methyl}piperazin-1-yl)-2-(1H-pyrrolo[2,3-b]pyridin-5-yloxy)benzamide] | 450 nM
10 | CC1(C)CCC(CN2CCN(c3ccc(C(=O)NS(=O)(=O)c4ccc(NC5CCC(N(CCC#N)C6CC6)CC5)c([N+](=O)[O-])c4)c(Oc4cnc5[nH]ccc5c4)c3)CC2)=C(c2ccc(Cl)cc2)C1 (stereo not shown) [Example 340, 4-(4-{[2-(4-chlorophenyl)-4,4-dimethylcyclohex-1-en-1-yl]methyl}piperazin-1-yl)-N-{[4-({4-[(2-cyanoethyl)(cyclopropyl)amino]cyclohexyl}amino)-3-nitrophenyl]sulfonyl}-2-(1H-pyrrolo[2,3-b]pyridin-5-yloxy)benzamide] | 56.5 nM
11 | CC1(C)CCC(CN2CCN(c3ccc(C(=O)NS(=O)(=O)c4cnc(OCC5CCc6nccn6C5)c(Cl)c4)c(Oc4cnc5[nH]ccc5c4)c3)CC2)=C(c2ccc(Cl)cc2)C1 (stereo not shown) [Example 342, 4-(4-{[2-(4-chlorophenyl)-4,4-dimethylcyclohex-1-en-1-yl]methyl}piperazin-1-yl)-N-{[5-chloro-6-(5,6,7,8-tetrahydroimidazo[1,2-a]pyridin-6-ylmethoxy)pyridin-3-yl]sulfonyl}-2-(1H-pyrrolo[2,3-b]pyridin-5-yloxy)benzamide] | 50.9 nM
12 | CC1(C)CCC(CN2CCN(c3ccc(C(=O)NS(=O)(=O)c4cnc(OC[C@H]5C[C@H]6C[C@@H]5C[C@@]6(C)O)c(Cl)c4)c(Oc4cnc5[nH]ccc5c4)c3)CC2)=C(c2ccc(Cl)cc2)C1 [Example 343, N-[(5-chloro-6-{[(1R,2S,4R,5R)-5-hydroxy-5-methylbicyclo[2.2.1]hept-2-yl]methoxy}pyridin-3-yl)sulfonyl]-4-(4-{[2-(4-chlorophenyl)-4,4-dimethylcyclohex-1-en-1-yl]methyl}piperazin-1-yl)-2-(1H-pyrrolo[2,3-b]pyridin-5-yloxy)benzamide] | 127 nM
13 | O=C(NS(=O)(=O)c1cnc(OCC2(F)CCN(C3COC3)CC2)c(Cl)c1)c1ccc(N2CCN(CC3=C(c4ccc(Cl)cc4)CC4(CC3)CC4)CC2)cc1Oc1cnc2[nH]ccc2c1 [Example 345, N-[(5-chloro-6-{[4-fluoro-1-(oxetan-3-yl)piperidin-4-yl]methoxy}pyridin-3-yl)sulfonyl]-4-(4-{[5-(4-chlorophenyl)spiro[2.5]oct-5-en-6-yl]methyl}piperazin-1-yl)-2-(1H-pyrrolo[2,3-b]pyridin-5-yloxy)benzamide] | 9.25 nM
